Values quoted from earlier work, collected in US20190117606A1, “COMPOSITIONS COMPRISING L-THEANINE, PROANTHOCYANIDIN/S AND A CATECHIN AND USES THEREOF” (priority 2016, published 2019).

Conditions: in vivo

Crossing of the blood-brain barrier: known to cross the blood-brain barrier
Time to peak concentrations after consumption: about one
Structure (SMILES): CCNC(=O)CC[C@H](N)C(=O)O [L-theanine, γ-glutamylethylamide]
